Experimental data reported in ChEMBL document CHEMBL3112516, “Design, synthesis and biological evaluation of novel peptide MC62 analogues as potential antihyperglycemic agents” (2014).
Activity calls are given as the source filed them. The calls are words filed in the database; no cut-off is given here.

Columns and labels:
Mus musculus [1] = assay: Antihyperglycemic activity in overnight fasted STZ-induced diabetic mouse model assessed as blood glucose level at 1 umol/kg, ip qd administered for 20 days measured after 20 days relative to control; assay type: functional
Mus musculus [2] = assay: Antioxidant activity in STZ-induced mouse model assessed as SOD level at 1 umol/kg, ip administered for 20 days measured on day 21 (reference value: 41.58 +/- 2.89 U/ml); assay type: functional
MIN6 [3] = assay: Inhibition of H202-induced apoptosis in mouse MIN6 cells assessed as change in nuclear fragmentation at 10 nM preincubated for 24 hrs followed by H202 challenge measured after 1 hr by Hoechst 33342 staining-based microscopic analysis; assay type: functional, cell-based
Mus musculus [4] = assay: Antioxidant activity in STZ-induced mouse model assessed as MDA level at 1 umol/kg, ip administered for 20 days measured on day 21 (reference value: 12.49 +/- 1.35 nmol/ml); assay type: functional
Mus musculus [5] = assay: Antioxidant activity in STZ-induced mouse model assessed as GSH-PX level at 1 umol/kg, ip administered for 20 days measured on day 21 (reference value: 1449.23 +/- 49.42 U/ml); assay type: functional
Mus musculus [6] = assay: Antioxidant activity in STZ-induced mouse model assessed as GSH level at 1 umol/kg, ip administered for 20 days measured on day 21 (reference value: 8.13 +/- 0.13 mg/ml); assay type: functional
Mus musculus [7] = assay: Antihyperglycemic activity in STZ-induced mouse model assessed as decrease in water intake at 1 umol/kg, ip administered for 20 days measured every 5 days up to 20 days; assay type: functional, organism-based
Mus musculus [8] = assay: Antihyperglycemic activity in mouse assessed as decrease in blood glucose level at 1 umol/kg, ip pretreated with compound followed by glucose challenge measured after 30 to 60 mins by oral glucose tolerance test; assay type: functional, organism-based
Mus musculus [9] = assay: Antihyperglycemic activity in overnight fasted STZ-induced mouse model assessed as decrease in glycated hemoglobin level at 1 umol/kg, ip administered for 20 days measured on day 21; assay type: functional, organism-based
MIN6 [10] = assay: Inhibition of palmitate-induced apoptosis in mouse MIN6 cells assessed as reduction of apoptotic cells at 10 nM preincubated for 24 hrs followed by palmitate challenge measured after 1 hr by Hoechst 33342 staining-based microscopic analysis; assay type: functional, cell-based
Mus musculus [11] = assay: Antihyperglycemic activity in STZ-induced mouse model assessed as increase in islet number at 1 umol/kg, ip by hematoxylin and eosin staining technique; assay type: functional, organism-based
Mus musculus [12] = assay: Antihyperglycemic activity in STZ-induced mouse model assessed as decrease in food intake at 1 umol/kg, ip administered for 20 days measured every 5 days up to 20 days; assay type: functional, organism-based
Mus musculus [13] = assay: Antihyperglycemic activity in STZ-induced mouse model assessed as decrease in body weight at 1 umol/kg, ip administered for 20 days measured every 5 days up to 20 days; assay type: functional, organism-based
Mus musculus [14] = assay: Antihyperglycemic activity in overnight fasted STZ-induced mouse model assessed as reduction of fasting blood glucose level at 1 umol/kg, ip administered for 20 days measured every 5 days up to 20 days; assay type: functional, organism-based

Row | Substance | Activity (Mus musculus [1]) [mmol/L] | further results
1 | H-KTGMKHMAGAA-OH | 14.36 | –
2 | H-KTNMKGMAGAA-OH | 13.29 | –
3 | H-MTNMKGMAGAA-OH | 20.83 | –
4 | H-KGNMKHMAGAA-OH | 15.28 | –
5 | H-KTMMKGMAGAA-OH | 11.8 | Activity (Mus musculus [2]): 46.96 U/ml; Activity (MIN6 [3]): Active; Activity (Mus musculus [4]): 7.61 nmol/mL; Activity (Mus musculus [5]): 1707.69 U/ml; Activity (Mus musculus [6]): 12.14 mg/mL; Activity (Mus musculus [7]): Active; Activity (Mus musculus [8]): Active; Activity (Mus musculus [9]): Active; Activity (MIN6 [10]): Active; Activity (Mus musculus [11]): Active; Activity (Mus musculus [12]): Active; Activity (Mus musculus [13]): Active; Activity (Mus musculus [14]): Active
6 | H-KTNMKGMAGMA-OH | 17.38 | –
7 | H-GTNMKHMAGAA-OH | 15.26 | –
8 | H-KTNMKGMAMAA-OH | 14.03 | –
9 | H-KMNMKGMAGAA-OH | 13.44 | –
10 | H-KTNMKHGAGAA-OH | 21.82 | –
11 | H-KTNGKHMAGAA-OH | 18.34 | –
12 | H-KTNMKHMAGAA-OH | 16.16 | –
13 | H-KTNMGHMAGAA-OH | 18.52 | –
14 | H-KTNMKHMGGAA-OH | 18.02 | –
15 | H-KTNMKGMAGAM-OH | 20.18 | –
